Measured values from US8053470B2, “Process for the preparation of polynuclear ferric hydroxide-saccaride complexes” (Chongqing Pharmaceutical Research Institute Co., Ltd., priority 2005, dated 2011).

Assay: Isoelectric point of the iron-saccharide complex: pH at which its aqueous solution turns turbid on drop-wise addition of diluted hydrochloric acid (USP 27 iron sucrose injection method)
Type: physicochemical
Details: examples described in text; Example 1 measured by method of 27th version of USP
Description: The term “isoelectric point” herein refers to a pH value at which the aqueous solution of iron-saccharide complexes turns turbid during the drop-wise addition of a diluted hydrochloric acid solution.

Substance | isoelectric point of the final product
Polynuclear Ferric Hydroxide-fructose Complex [Example 11] | 5.2
Polynuclear Ferric Hydroxide-sucrose Complex [Example 1] | 4.4
